Holding throughout (test): NCI tumour cell line growth inhibition, 48 h
The subject of test [1] is A549 NSCLC.
Test [2] relates to HCT-116 colon.
The test system of test [3] is HOP-92 NSCLC.
Test [4] relates to KM12 colon.
Test [5] concerns OVCAR-4 ovarian.
In test [6] the test system is SNB-75 CNS.
The subject of test [7] is U251 CNS.
Test [8] has as its system UACC-257 melanoma.
Test [9] relates to UACC-62 melanoma.
Test [10] deals with M14 melanoma.

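Five compound concentrations were applied to cells in 96-well plates for 48 hours; endpoints were derived by simple linear interpolation of the resulting dose-response curve. GI50 marks 50% less growth. At the TGI there is no net growth.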 Where only a bound is given, the exact number is not on record here.

We go through seven compounds from PubChem BioAssay (NCI).

As for `CC(=S)NC1C(Oc2ccc3c(C)cc(=O)oc3c2)OC(CO)C(O)C1O` (stereo not drawn), the TGI in test [1], in [2], in [3], in test [4], in test [5] and in [6] was above 100 µM each time. The TGI in test [7], in test [8] and in test [9] was above 100 µM each time.

Regarding `C[Si](C)(C)C1=C2C(=O)c3ccccc3C(=O)C2=C([Si](C)(C)C)[C@@H]2CCCC[C@H]12`, the TGI in [1], in test [2], in test [3], in test [10], in [5] and in test [7] was above 100 µM each time. The TGI in test [8] and in test [9] was above 100 µM in each case.

Turning to `CC(C)OP(=O)(OC(C)C)c1ncn(-c2ccc([N+](=O)[O-])cc2)n1`, the TGI in [1], in [2], in test [3], in test [4], in test [10] and in [5] was above 100 µM each time. The TGI in test [6], in test [7], in test [8] and in test [9] was above 100 µM in each case.

Regarding `Cc1cccc2ns[s+]c12`, the TGI was above 100 µM in test [1]; 37.7 µM in test [2]; above 100 µM in test [3]; above 100 µM in test [4]; above 100 µM in [10]; above 100 µM in test [5]. For the same compound, the TGI in [6], in test [7], in test [8] and in test [9] was above 100 µM in each case.

As for `COc1ccc2c(c1)CCC1C2CCC2(C)C1CC[C@@]2(O)CNC(=O)/C=C/c1ccc(O)c(O)c1` (stereo partly drawn), the GI50 in test [1] was 3.95 µM; in test [2], 2.95 µM; in [3], 2.23 µM; in test [4], 2.44 µM; in [10], 2.59 µM; in test [5], 3.02 µM. The GI50 is 2.65 µM in [6], 1.65 µM in test [7], 18.5 µM in test [8] and 2.24 µM in test [9]. Also, the TGI was 29.3 µM in [1]; 19.2 µM in test [2]; 14.7 µM in test [3]; 7.82 µM in [4]; 7.42 µM in [10]; above 100 µM in test [5]. Also, the TGI amounted to 7.18 µM in [6], 4.41 µM in test [7], 35.7 µM in [8] and 5.63 µM in test [9].

With `O=C(CCc1nnc2s/c(=C\c3ccc(Cl)cc3Cl)c(=O)n12)Nc1cc(Cl)c(Cl)cc1Cl`, the GI50 in test [1], in test [2], in test [4], in test [10], in [5] and in test [8] was above 100 µM in each case. Further, the GI50 in test [9] is above 100 µM. For the same compound, the TGI in test [1], in test [2], in test [3], in test [4], in [10] and in test [5] was above 100 µM throughout. The TGI in test [6], in test [7], in test [8] and in [9] was above 100 µM throughout.

Take `CN1C(=N\S(=O)(=O)c2ccc(Cl)cc2)/C(=N/N=P(c2ccccc2)(c2ccccc2)c2ccccc2)c2ccccc21`: the TGI in [1], in test [2], in [4], in test [10], in test [5] and in test [6] was above 100 µM each time. Moreover, the TGI in test [7], in test [8] and in test [9] was above 100 µM throughout.
